According to patent US12612397B2, “Methods and compositions for modulating splicing” (Skyhawk Therapeutics, Inc., priority 2019, dated 2026):

What was measured:
SMN FL = assay: Quantitative splicing assay (SMN) in SMA patient fibroblasts (GM03813); type: cell-based; conditions: Homo sapiens, Fibroblast; SMA patient fibroblasts GM03813, 24 h, qPCR
Method: Spinal muscular atrophy (SMA) patient fibroblasts (GM03813, Coriell) are plated in 96-well plates at 50,000 cells/well. Immediately after plating, cells are dosed with compounds for 24 h at concentrations ranging from 2.5 μM to 0.6 nM (0.1% DMSO). Treated cells are lysed and cDNA synthesized using the Fast Advanced Cells-to-Ct kit (Thermofisher A35378) according to the manufacturer's instructions. 2 μL of each cDNA are used in qPCR reactions. The qPCR reactions are prepared in 384-well plates in 10 μL volume, using TaqMan™ Fast Advanced Master Mix (ThermoFisher; 4444965) with primers and probes shown in the table below. Reactions are run in a Quant Studio 6 qPCR instrument with default settings.

SMN protein = SMN protein assay (MSD) in SMA patient fibroblasts (GM03813); type: cell-based, human; conditions: SMN protein by MSD, SMA patient fibroblasts GM03813, 48 hours
Method: Compounds were tested on spinal muscular atrophy (SMA) patient fibroblasts (GM03813, Coriell) at doses ranging from 2.5 μM to 0.6 nM. 7000 cells/well were seeded in 96-well plates. Compounds were incubated for 48 hours and the cells were lysed with 100 μL of lysis buffer. 20 μL of lysate was used for SMN protein measurement by Mesoscale Discovery (MSD) assay developed by PharmOptima (Michigan). A standard curve prepared with SMN protein ranging from 1 μg/ml to 19.5 pg/ml was used in each MSD plate to calculate the absolute SMN protein amount in each sample.

[1] = test system: MDR1-MDCK cell monolayers; conditions: dog, MDCK-MDR1, 120 min, 5 μM, pH 7.4
Method: (§1) The permeability of compounds is assessed for BBB penetration potential by use of an MDCK-MDR1 assay (Catalog EA203) performed by Absorption Systems, Exton PA.
(§2) MDR1-MDCK cell monolayers are grown to confluence on collagen-coated, microporous membranes in 12-well assay plates. The permeability assay buffer is Hanks' balanced salt solution containing 10 mM HEPES and 15 mM glucose at a pH of 7.4. The buffer in the receiver chamber also contained 1% bovine serum albumin. The dosing solution concentration is 5 μM of test article in the assay buffer. Cell monolayers are dosed on the apical side (A-to-B) or basolateral side (B-to-A) and incubated at 37° C. with 5% CO2 in a humidified incubator. Samples are taken from the donor and receiver chambers at 120 minutes. Each determination is performed in duplicate. The flux of lucifer yellow is also measured post-experimentally for each monolayer to ensure no damage is inflicted to the cell monolayers during the flux period. All samples are assayed by LC-MS/MS using electrospray ionization.
(§3) Efflux ratio (ER) is defined as Papp (B-to-A)/Papp (A-to-B).
(§4) • Column: Waters ACQUITY UPLC BEH Phenyl 30×2.1 mm, 1.7 μm • M.P. Buffer: 25 mM ammonium formate buffer, pH 3.5 • Aqueous Reservoir (A): 90% water, 10% buffer • Organic Reservoir (B): 90% acetonitrile, 10% buffer • Flow Rate: 0.7 mL/minute Gradient Program:
(§5) • Total Run Time: 1.00 minute • Autosampler: 2 μL injection volume • Wash1: water/methanol/2-propanol:1/1/1; with 0.2% formic acid • Wash2: 0.1% formic acid in water

MDR1 = assay: in vitro; conditions: dog, MDCK-MDR1, pH 7.4
Method: as §1, §2, §3, §4, §5

| SMILES | EC50 (SMN FL) [nM] | EC50 (SMN protein) [nM] | MDCK-MDR1: % Recov A-B [1] [%] | MDCK-MDR1: % Recov B-A [1] [%] | Papp A→B at 120 min, 5 μM (MDR1) [×10⁻⁶ cm/s] | Papp B→A at 120 min, 5 μM (MDR1) [×10⁻⁶ cm/s] | efflux ratio at 120 min, 5 μM (MDR1) |
| --- | --- | --- | --- | --- | --- | --- | --- |
| CN(c1ncc(-c2ccc(-c3cn[nH]c3)cc2O)nn1)[C@@H]1C[C@H]2CC[C@H](N2)[C@@H]1F (single isomer, unassigned) [Compound 1A] | 0.01 to 15 | 16 to 50 | 86 | 89 | 3.47 | 51.6 | 15 |
| CN(c1ncc(-c2ccc(-c3cn[nH]c3)cc2O)nn1)[C@H]1C[C@@H]2CC[C@@H](N2)[C@H]1F (single isomer, unassigned) [Compound 1B] | 101 to 500 | 0.01 to 15 | 78 | 90 | 2.95 | 33.2 | 11 |
| CN(c1ncc(-c2ccc(-c3cnn(C)c3)cc2O)nn1)[C@@H]1C[C@H]2CCC[C@H](N2)[C@@H]1F (single isomer, unassigned) [Compound 2A] | – | 51 to 100 | 81 | 84 | 4.48 | 30.3 | 7 |
| CN(c1ncc(-c2ccc(-c3cnn(C)c3)cc2O)nn1)[C@H]1C[C@@H]2CCC[C@@H](N2)[C@H]1F (single isomer, unassigned) [Compound 2B] | – | 16 to 50 | 69 | 83 | 6.89 | 32.9 | 5 |
| CN(c1ncc(-c2cc3ccncc3s2)nn1)[C@@H]1C[C@H]2CC[C@H](N2)[C@@H]1F (single isomer, unassigned) [Compound 8A] | – | 501 to 10000 | 87 | 93 | 13.5 | 37.3 | 3 |
| CN(c1ncc(-c2cc3ccncc3s2)nn1)[C@H]1C[C@@H]2CC[C@@H](N2)[C@H]1F (single isomer, unassigned) [Compound 8B] | – | 501 to 10000 | 79 | 81 | 12.9 | 49.6 | 4 |
| CN(C)C(=O)c1cc2cc(O)c(-c3cnc(N(C)[C@@H]4C[C@H]5CC[C@H](N5)[C@@H]4F)nn3)cc2o1 (single isomer, unassigned) [Compound 9A] | – | – | 92 | 100 | 2.55 | 61.2 | 24 |
| CN(C)C(=O)c1cc2cc(O)c(-c3cnc(N(C)[C@H]4C[C@@H]5CC[C@@H](N5)[C@H]4F)nn3)cc2o1 (single isomer, unassigned) [Compound 9B] | – | – | 88 | 97 | 2.4 | 58.5 | 24 |
